The text below walks through data of US11572398B2, “GLP-1 derivatives and uses thereof” (Novo Nordisk A/S, priority 2014, dated 2023).

The target of data set [1] is T1, human GLP-1 receptor (Homo sapiens, UniProt P43220).
T1 construct: expressed in transfected cells; host or cells: BHK cells (parent line BHKTS13), clone FCW467-12A; membrane preparation
Briefly: In vitro potency: CRE luciferase reporter gene assay in BHK cells expressing the human GLP-1 receptor. It counts as cell-based. In a few lines:
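Whole-cell assay in stably transfected BHK cells carrying CRE-driven firefly luciferase, 5×10^3 cells/well, in assay buffer with 2% ovalbumin and 0.2% Pluronic F-68. Compound working solutions were 0.2 μM.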
Background: In a reporter assay the amount or activity of a reporter protein is the signal.

Data set [2] deals with T1, human GLP-1 receptor. The data set is described as follows: GLP-1 receptor binding: competitive binding assay (125I-GLP-1, SPA) on isolated membranes at low and high HSA.
Data set [3] can be described thus: Pharmacokinetic study in minipigs (i.v.). Conditions: male, Göttingen, minipig, in vivo, iv.
Protocol: The purpose of this study is to determine the protraction in vivo of the GLP-1 derivatives after i.v. administration to minipigs, i.e. the prolongation of their time in the body and thereby their time of action. This is done in a pharmacokinetic (PK) study, where the terminal half-life of the derivative in question is determined. By terminal half-life is meant the time it takes to halve a certain plasma concentration in the terminal elimination phase.
Male Göttingen minipigs were obtained from Ellegaard Göttingen Minipigs (Dalmose, Denmark) approximately 7-14 months of age and weighing approximately 16-35 kg were used in the studies. The minipigs were housed either individually (pigs with permanent catheters) or in a group and fed restrictedly once or twice daily with SDS minipig diet (Special Diets Services, Essex, UK).
After at least 2 weeks of acclimatisation two permanent central venous catheters were implanted in vena cava caudalis or cranialis in each animal. The animals were allowed 1 week recovery after the surgery, and were then used for repeated pharmacokinetic studies with a suitable wash-out period between successive GLP-1 derivative dosings.
Blood samples (for example 0.8 ml) were collected in EDTA buffer (8 mM) and then centrifuged at 4° C. and 1942G for 10 minutes.
Plasma was pipetted into Micronic tubes on dry ice, and kept at −20° C. until analysed for plasma concentration of the respective GLP-1 compound using LOCI. Individual plasma concentration-time profiles were analyzed by a non-compartmental pharmacokinetic method in Phoenix v. 6.2 (Pharsight Inc., Mountain View, Calif., USA), or other relevant software for PK analysis, and the resulting terminal half-lives (harmonic mean) determined.
The mark [4] stands for this setting: Low HSA IC50, low HSA (max. 0.001% final assay concentration).
Where [5] appears, read: whole cell reporter gene assay, BHK cells, human GLP-1 receptor, average of at least two replicates, read-out: EC50.
Setting [6] is: high HSA (2.0% final assay concentration), read-out: High HSA IC50.

The structures appear in SMILES notation. pEC50, pIC50: −log10 of the molar value. Read-outs that look alike come from different tables or passages of the source. Non-standard residues stand in square brackets, D forms with d. Residues, ends and D or L forms follow the SMILES beside them. *: point of attachment. X1 = O=C(O)CCCCCCCCCCCCCCCCCCC(=O)NC[C@H]1CC[C@H](C(=O)N[C@@H](CCC(=O)NCCOCCOCC(=O)NCCOCCOCC(=O)NCCOCCOCC(=O)NCCOCCOCC(=O)NCCOCCOCC(=O)NCCOCCOCC(=O)NCCCN(CCCNC(=O)COCCOCCNC(=O)COCCOCCNC(=O)COCCOCCNC(=O)COCCOCCNC(=O)COCCOCCNC(=O)COCCOCCNC(=O)CC[C@H](NC(=O)[C@H]2CC[C@H](CNC(=O)CCCCCCCCCCCCCCCCCCC(=O)O)CC2)C(=O)O)CC(=O)*)C(=O)O)CC1; Aib = CC(C)(N)C(=O)O

T1 sequence (P43220 24-463): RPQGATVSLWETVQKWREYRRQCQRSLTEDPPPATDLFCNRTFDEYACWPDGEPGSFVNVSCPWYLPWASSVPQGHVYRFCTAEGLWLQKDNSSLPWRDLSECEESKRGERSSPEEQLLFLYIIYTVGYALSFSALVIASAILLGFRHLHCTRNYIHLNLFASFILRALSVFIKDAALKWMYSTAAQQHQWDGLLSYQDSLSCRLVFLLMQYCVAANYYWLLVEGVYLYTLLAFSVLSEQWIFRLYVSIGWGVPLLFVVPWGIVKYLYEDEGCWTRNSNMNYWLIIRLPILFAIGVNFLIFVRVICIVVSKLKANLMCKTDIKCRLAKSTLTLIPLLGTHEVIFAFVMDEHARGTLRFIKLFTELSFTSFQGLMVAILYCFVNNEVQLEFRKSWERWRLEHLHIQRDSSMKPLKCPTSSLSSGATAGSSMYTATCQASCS

Usually pEC50 stands for −log10 of the EC50, conventionally taken in molar units. As usually defined, the pIC50 is the negative decadic logarithm of the IC50, by convention in mol/L. Broadly, the half-life is the time in which the quantity being followed falls by half. `CC[C@H](C)[C@H](NC(=O)[C@H](Cc1ccccc1)NC(=O)[C@H](CCC(=O)O)NC(=O)[C@H](CCCNC(=N)N)NC(=O)[C@H](C)NC(=O)[C@H](C)NC(=O)[C@H](CCC(N)=O)NC(=O)[C@H](CCC(=O)O)NC(=O)[C@H](CCC(=O)O)NC(=O)[C@H](CC(C)C)NC(=O)[C@H](Cc1ccc(O)cc1)NC(=O)[C@H](CO)NC(=O)[C@H](CO)NC(=O)[C@@H](NC(=O)[C@H](CC(=O)O)NC(=O)[C@H](CO)NC(=O)[C@@H](NC(=O)[C@H](Cc1ccccc1)NC(=O)[C@@H](NC(=O)CNC(=O)[C@H](CCC(=O)O)NC(=O)C(C)(C)NC(=O)[C@@H](N)Cc1c[nH]cn1)[C@@H](C)O)[C@@H](C)O)C(C)C)C(=O)N[C@@H](C)C(=O)N[C@@H](Cc1c[nH]c2ccccc12)C(=O)N[C@@H](CC(C)C)C(=O)N[C@H](C(=O)N[C@@H](CCCNC(=N)N)C(=O)NCC(=O)N[C@@H](CCCNC(=N)N)C(=O)N[C@@H](CCCCNC(=O)CN(CCCNC(=O)COCCOCCNC(=O)COCCOCCNC(=O)COCCOCCNC(=O)COCCOCCNC(=O)COCCOCCNC(=O)[C@@H](N)CCCCNC(=O)[C@@H](N)CCCCNC(=O)CCCNC(=O)CCCCCCCCCCCCCCCS(=O)(=O)O)CCCNC(=O)COCCOCCNC(=O)COCCOCCNC(=O)COCCOCCNC(=O)COCCOCCNC(=O)COCCOCCNC(=O)[C@@H](N)CCCCNC(=O)[C@@H](N)CCCCNC(=O)CCCNC(=O)CCCCCCCCCCCCCCCS(=O)(=O)O)C(=O)O)C(C)C` [Example 9, N{Epsilon-37}-[2-[bis[3-[[2-[2-[2-[[2-[2-[2-[[2-[2-[2-[[2-[2-[2-[[2-[2-[2-[[(2S)-2-amino-6-[[(2S)-2-amino-6-[4-(16-sulfohexadecanoylamino)butanoylamino]hexanoyl]amino]hexanoyl]amino]ethoxy]ethoxy]acetyl]amino]ethoxy]ethoxy]acetyl]amino]ethoxy]ethoxy]acetyl]amino]ethoxy]ethoxy]acetyl]amino]ethoxy]ethoxy]acetyl]amino]propyl]amino]acetyl]-[Aib8,Glu22,Arg26,Arg34,Lys37]-GLP-1-(7-37)-peptide]: the pEC50 at human GLP-1 receptor [1] was 11.80. Besides, the pIC50 at human GLP-1 receptor [2] (High HSA IC50, high HSA (2.0% final assay concentration)) was 7.54; on human GLP-1 receptor [2] (setting [4]), 9.80. In addition, the half-life in data set [3] (5 nmol/kg) is 104 h.
For `CC[C@H](C)[C@H](NC(=O)[C@H](Cc1ccccc1)NC(=O)[C@H](CCC(=O)O)NC(=O)[C@H](CCCNC(=N)N)NC(=O)[C@H](C)NC(=O)[C@H](C)NC(=O)[C@H](CCC(N)=O)NC(=O)[C@H](CCC(=O)O)NC(=O)[C@H](CCC(=O)O)NC(=O)[C@H](CC(C)C)NC(=O)[C@H](Cc1ccc(O)cc1)NC(=O)[C@H](CO)NC(=O)[C@H](CO)NC(=O)[C@@H](NC(=O)[C@H](CC(=O)O)NC(=O)[C@H](CO)NC(=O)[C@@H](NC(=O)[C@H](Cc1ccccc1)NC(=O)[C@@H](NC(=O)CNC(=O)[C@H](CCC(=O)O)NC(=O)C(C)(C)NC(=O)[C@@H](N)Cc1c[nH]cn1)[C@@H](C)O)[C@@H](C)O)C(C)C)C(=O)N[C@@H](C)C(=O)N[C@@H](Cc1c[nH]c2ccccc12)C(=O)N[C@@H](CC(C)C)C(=O)N[C@H](C(=O)N[C@@H](CCCNC(=N)N)C(=O)NCC(=O)N[C@@H](CCCNC(=N)N)C(=O)N[C@@H](CCCCNC(=O)COCCOCCNC(=O)COCCOCCNC(=O)CN(CCCNC(=O)COCCOCCNC(=O)COCCOCCNC(=O)COCCOCCNC(=O)COCCOCCNC(=O)CC[C@H](NC(=O)[C@H]1CC[C@H](CNC(=O)CCCCCCCCCCCCCCCCCCC(=O)O)CC1)C(=O)O)CCCNC(=O)COCCOCCNC(=O)COCCOCCNC(=O)COCCOCCNC(=O)COCCOCCNC(=O)CC[C@H](NC(=O)[C@H]1CC[C@H](CNC(=O)CCCCCCCCCCCCCCCCCCC(=O)O)CC1)C(=O)O)C(=O)O)C(C)C` [Example 11], the negative logarithm of the EC50 (pEC50) at human GLP-1 receptor [1] (setting [5]) is 10.77. The pIC50 on human GLP-1 receptor [2] (setting [4]) is 9.46; at human GLP-1 receptor [2] (setting [6]), 7.48. For the same molecule, the half-life in data set [3] (2 nmol/kg) was 160 h.
Turning to `CC[C@H](C)[C@H](NC(=O)[C@H](Cc1ccccc1)NC(=O)[C@H](CCC(=O)O)NC(=O)[C@H](CCCNC(=N)N)NC(=O)[C@H](C)NC(=O)[C@H](C)NC(=O)[C@H](CCC(N)=O)NC(=O)[C@H](CCC(=O)O)NC(=O)[C@H](CCC(=O)O)NC(=O)[C@H](CC(C)C)NC(=O)[C@H](Cc1ccc(O)cc1)NC(=O)[C@H](CO)NC(=O)[C@H](CO)NC(=O)[C@@H](NC(=O)[C@H](CC(=O)O)NC(=O)[C@H](CO)NC(=O)[C@@H](NC(=O)[C@H](Cc1ccccc1)NC(=O)[C@@H](NC(=O)CNC(=O)[C@H](CCC(=O)O)NC(=O)C(C)(C)NC(=O)[C@@H](N)Cc1c[nH]cn1)[C@@H](C)O)[C@@H](C)O)C(C)C)C(=O)N[C@@H](C)C(=O)N[C@@H](Cc1c[nH]c2ccccc12)C(=O)N[C@@H](CC(C)C)C(=O)N[C@H](C(=O)N[C@@H](CCCNC(=N)N)C(=O)NCC(=O)N[C@@H](CCCNC(=N)N)C(=O)N[C@@H](CCCCNC(=O)CN(CCCNC(=O)COCCOCCNC(=O)COCCOCCNC(=O)COCCOCCNC(=O)COCCOCCNC(=O)COCCOCCNC(=O)COCCOCCNC(=O)CC[C@H](NC(=O)[C@H]1CC[C@H](CNC(=O)CCCCCCCCCCCCCCCCCCC(=O)O)CC1)C(=O)O)CCCNC(=O)COCCOCCNC(=O)COCCOCCNC(=O)COCCOCCNC(=O)COCCOCCNC(=O)COCCOCCNC(=O)COCCOCCNC(=O)CC[C@H](NC(=O)[C@H]1CC[C@H](CNC(=O)CCCCCCCCCCCCCCCCCCC(=O)O)CC1)C(=O)O)C(=O)O)C(C)C` [Example 3], on human GLP-1 receptor [1] (setting [5]), the pEC50 is 10.70. Also, the pIC50 on human GLP-1 receptor [2] (setting [4]) was 9.39; at human GLP-1 receptor [2] (setting [6]) it was 7.66. Further, the half-life in data set [3] (5 nmol/kg) was 159 h.
Regarding `CC[C@H](C)[C@H](NC(=O)[C@H](Cc1ccccc1)NC(=O)[C@H](CCC(=O)O)NC(=O)[C@H](CCCNC(=N)N)NC(=O)[C@H](C)NC(=O)[C@H](C)NC(=O)[C@H](CCC(N)=O)NC(=O)[C@H](CCC(=O)O)NC(=O)[C@H](CCC(=O)O)NC(=O)[C@H](CC(C)C)NC(=O)[C@H](Cc1ccc(O)cc1)NC(=O)[C@H](CO)NC(=O)[C@H](CO)NC(=O)[C@@H](NC(=O)[C@H](CC(=O)O)NC(=O)[C@H](CO)NC(=O)[C@@H](NC(=O)[C@H](Cc1ccccc1)NC(=O)[C@@H](NC(=O)CNC(=O)[C@H](CCC(=O)O)NC(=O)C(C)(C)NC(=O)[C@@H](N)Cc1c[nH]cn1)[C@@H](C)O)[C@@H](C)O)C(C)C)C(=O)N[C@@H](C)C(=O)N[C@@H](Cc1c[nH]c2ccccc12)C(=O)N[C@@H](CC(C)C)C(=O)N[C@H](C(=O)N[C@@H](CCCNC(=N)N)C(=O)NCC(=O)N[C@@H](CCCNC(=N)N)C(=O)N1CCC[C@H]1C(=O)N[C@@H](CCCCNC(=O)CN(CCCNC(=O)COCCOCCNC(=O)COCCOCCNC(=O)COCCOCCNC(=O)COCCOCCNC(=O)COCCOCCNC(=O)COCCOCCNC(=O)CC[C@H](NC(=O)[C@H]1CC[C@H](CNC(=O)CCCCCCCCCCCCCCCCCCC(=O)O)CC1)C(=O)O)CCCNC(=O)COCCOCCNC(=O)COCCOCCNC(=O)COCCOCCNC(=O)COCCOCCNC(=O)COCCOCCNC(=O)COCCOCCNC(=O)CC[C@H](NC(=O)[C@H]1CC[C@H](CNC(=O)CCCCCCCCCCCCCCCCCCC(=O)O)CC1)C(=O)O)C(=O)O)C(C)C` [Example 10] (H-H[Aib]EGTFTSDVSSYLEEQAAREFIAWLVRGRPK(X1)-OH; N-terminus and C-terminus assumed), the half-life in data set [3] (2 nmol/kg) is 151 h.
